Laboratory results taken from patent US5312749A, “Industrial alkaline protease from shipworm bacterium” (The United States of America as represented by the …, priority 1992, dated 1994).
Structures can show the parent of a compound that is named as a salt. Where two headings read alike, the source gives them in different places.

What was measured:
[1] = test system: alkaline protease from shipworm bacterium; assay: Inhibition of alkaline protease: preincubation with inhibitor, then azocasein assay; assay type: biochemical, bacterial symbiont of the shipworm Psiloteredo healdi; details: for Activity (%): assay 42° C., pH 9.0, 0.2M NaCl
Experimental: The protease purification was monitored by assaying for proteolytic activity and protein concentration after each step. Proteolytic activity was determined in duplicate assays employing azocasein for the substrate, as described by Cotta et al. [Applied Environmental Microbiology, vol. 52, 51-58 (1986)]. Units represent μg of azocasein digested per hour. Protein concentrations were determined by the method of Bradford [Analytical Biochemistry, […] (1976)] with bovine serum albumin as a standard.
Several compounds known to inhibit various proteases were examined for their effect on the activity of the purified enzyme from Example 2 (Table II). The protease was incubated prior to assay for 1 hr at 25° C. All assays were measured at 42° C. and pH 9.0 in 0.2M NaCl buffered with 100 mM bis Tris propane.

[2] = test system: alkaline protease from shipworm bacterium; assay: as above; assay type: biochemical, bacterial symbiont of the shipworm Psiloteredo healdi; details: inhibitor 0.1%; preincubation 1 hr at 42° C.; assay 42° C., pH 9.0, 0.2M NaCl
[3] = inhibitor 0.1 mM, preincubated 1 hr at 25° C., 100% = 154 units/ml
[4] = inhibitor 10 mM, preincubated 1 hr at 25° C., 100% = 154 units/ml
[5] = inhibitor 1 mM, preincubated 1 hr at 25° C., 100% = 154 units/ml

With [Cl][Cu][Cl] [CuCl2] the “Activity (%)” value [1, 3] was 97% and the “Activity (%)” value [1, 4] was 94%.

With O=C(O)CN(CCN(CC(=O)O)CC(=O)O)CC(=O)O [EDTA (disodium salt), EDTA] the “effect on the activity of the protease (in words)” value (from here on “effect on the activity”) [1] was “little effect” and the “Activity (%)” value [1, 4] was 102%.

With [Cl][Hg][Cl] [HgCl2] the “Activity (%)” value [1, 3] was 66% and the “Activity (%)” value [1, 4] was 8%.

With NC(=O)CI [Iodoacetamide] the “effect on the activity” value [1] was “little effect”, the “Activity (%)” value [1, 3] was 102% and the “Activity (%)” value [1, 5] was 102%. The “Activity (%)” value [1, 4] was 100%.

For Cc1ccc2ccc3ccc(C)nc3c2n1 [Neocuproine HCl], the “effect on the activity” value [1] was “little effect” and the “Activity (%)” value [1, 4] was 99%.

In the case of O=S(=O)(F)Cc1ccccc1 [Phenylmethanesulphonyl fluoride], the “effect on the activity” value [1] is reported as “does not inhibit activity”, the “Activity (%)” value [1, 3] is reported as 93% and the “Activity (%)” value [1, 5] is reported as 98%. The “Activity (%)” value [1, 4] was 102%.

With O.O.O.O.[Na+].[O-]B1OO1 [Sodium perborate tetrahydrate] the “Activity (%)” value ([1]; inhibitor 0.1%, preincubation 1 hr at 25° C.) was 119%, the “effect on the activity” value ([1]; listed as perborate) was “protease activity stimulation” and the “effect on the activity” value ([1]; listed as sodium perborate) was “little effect”. For the same compound, the “effect on the activity” value ([1]; listed as sodium perborate tetrahydrate) was “apparent enhancement of protease activity” and the “Activity (%)” value [2] was 117%.

In the case of Cc1ccc(S(=O)(=O)N[C@@H](CCCCN)C(=O)CCl)cc1 [TLCK, tosyl-1-lysine chloromethyl ketone], the “effect on the activity” value [1] is reported as “significantly reduces the activity at low concentrations and abolishes it at high concentrations”, the “Activity (%)” value [1, 3] is reported as 47% and the “Activity (%)” value [1, 5] is reported as 20%. For the same compound, the “Activity (%)” value [1, 4] was 7%.

In the case of Cc1ccc(S(=O)(=O)N[C@@H](Cc2ccccc2)C(=O)CCl)cc1 [TPCK, tosylamide phenylethyl chloromethyl ketone], the “effect on the activity” value [1] is reported as “unaffected”, the “Activity (%)” value [1, 3] is reported as 94% and the “Activity (%)” value [1, 5] is reported as 99%. For the same compound, the “Activity (%)” value [1, 4] was 100%.

With NCCCCCC(=O)O [ε-Amino-n-caproic acid] the “effect on the activity” value [1] was “unaffected”, the “Activity (%)” value ([1]; inhibitor 100 μg, preincubated 1 hr at 25° C.) was 101% and the “Activity (%)” value ([1]; inhibitor 500 μg, preincubated 1 hr at 25° C.) was 99%.
